Laboratory results reported in the supplement of paper PMC10883282.
± gives the standard deviation of the averaged measurements.

System: RD-ES
Test: relative viability vs DMSO control (72 h) (fraction); higher = more viable cells
Summary of the method: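 After seeding at densities set for 80–90% confluence in 384-well plates, sarcoma cell lines waited 24 h before 2.5 µl of serially diluted compound was added. Source plates held 10 mM down to 0.0002 mM. Plates were incubated 72 h at 37 °C with 5% CO2, with 0.1% DMSO vehicle and a 5 µM positive control, and relative viability was taken from ATPLite as percent growth averaged over up to triplicate wells, with 1 set as full and 0 as none.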

Row | Structure (SMILES) | relative viability (0.00017 µM) | relative viability (0.00051 µM) | relative viability (0.00152 µM) | relative viability (0.00457 µM) | relative viability (0.01372 µM) | relative viability (0.04115 µM) | relative viability (0.1235 µM) | relative viability (0.3704 µM) | relative viability (1.111 µM) | relative viability (3.333 µM) | relative viability (10 µM)
1 | COc1cc2nccc(Oc3ccc(NC(=O)Nc4cc(C)on4)c(Cl)c3)c2cc1OC [Tivozanib] | 0.987 ± 0.038 | 1.01 ± 0.026 | 0.9944 ± 0.0095 | 1.02 ± 0.038 | 1.02 ± 0.022 | 1.03 ± 0.02 | 1 ± 0.024 | 1.02 ± 0.018 | 0.981 ± 0.031 | 0.912 ± 0.036 | 0.768 ± 0.02
2 | C[C@]1(O)C[C@@H](c2nc(-c3ccc4ccc(-c5ccccc5)nc4c3)c3c(N)nccn32)C1 [Linsitinib] | 0.986 ± 0.02 | 0.992 ± 0.034 | 0.982 ± 0.017 | 0.967 ± 0.015 | 0.928 ± 0.014 | 0.8432 ± 0.005 | 0.661 ± 0.017 | 0.451 ± 0.028 | 0.382 ± 0.016 | 0.354 ± 0.018 | 0.309 ± 0.0052
3 | C=CC(=O)Nc1cccc(Oc2nc(Nc3ccc(N4CCN(C)CC4)cc3)nc3ccsc23)c1 [Olmutinib] | 0.914 ± 0.052 | 0.949 ± 0.025 | 0.953 ± 0.022 | 0.953 ± 0.0047 | 0.9443 ± 0.0083 | 0.978 ± 0.015 | 0.979 ± 0.02 | 0.977 ± 0.012 | 0.9749 ± 0.0091 | 0.931 ± 0.068 | 0.774 ± 0.074
4 | O=C(Nc1cnn2ccc(N3CCC[C@@H]3c3cc(F)ccc3F)nc12)N1CC[C@H](O)C1 [Larotrectinib] | 0.95 ± 0.031 | 0.963 ± 0.01 | 0.978 ± 0.05 | 0.961 ± 0.024 | 0.9532 ± 0.0046 | 0.976 ± 0.016 | 0.961 ± 0.013 | 0.964 ± 0.014 | 0.968 ± 0.022 | 0.931 ± 0.052 | 0.932 ± 0.042
